From patent US20030086986A1, “Ophthalmic, pharmaceutical and other healthcare preparations with naturally occurring plant compounds, extracts and derivatives” (priority 1998, published 2003)
Like-named read-outs stand apart in the source and are kept apart here.

How the values were obtained:
Type in all cases: cell-based
Candida albicans = test: Log kill test of preservative/disinfectant formulae (challenge inoculum, plating over time)
Excerpt: (§1) Disinfectant and preservative tests are most often performed by challenging the preparation with a concentrated inoculum (e.g., 10^5-10^6 colony forming units (cfu)/ml) of each test organism. Over time samples are taken and plated on a growth medium to estimate the number of live organisms remaining at each time point.
(§2) The method for evaluating the effectiveness of a disinfectant for contact lenses generally requires measuring the ability of the agent to reduce the numbers of viable infective organisms during a period of time consistent with the normal period of storage of contact lenses between wearing times. This reduction of numbers of organisms is typically reported in terms of the change in the common logarithm (base 10 logarithm) of the microbial population as a result of exposure to the antimicrobial or disinfecting agent. For example, if the agent has effected a reduction in the concentration of a particular organisms in a challenge solution from 10^6 colony forming units (cfu) per milliliter (ml) to 10^2 cfu/ml within six hours of exposure then the change, or “log reduction”, of the organism as a result of exposure to the agent would be 4.0 (logs). In other words, the number of viable organisms have been reduced to one ten-thousandth of the original level.
(§3) In procedures for verifying the effectiveness of ophthalmic antimicrobial agents generally recognized guidelines call for the use of Candida albicans (a yeast), Fusarium solani or Aspergillus niger (both molds), Pseudomonas aeruginosa (a Gram-negative bacterium), Staphylococcus aureus (a Gram-positive bacterium), Serratia marcescens (a Gram-negative bacterium) and Escherichia coli (a bacterium common in the human gastrointestinal tract).
(§4) Various compounds/extracts were tested in the presence of either a phosphate or a borate-buffered solution. The test organisms included (S. aureus.=Staphylococcus aureus; Ps. aeruginosa=Pseudomonas aeruginosa; E. coli=Escherichia coli; C. albicans.=Candida albicans; and A. niger=Aspergillus niger) and inspected at various time intervals to determine the “log kill” of the various formulations.

Aspergillus niger = test: as above
Excerpt: as §1, §2, §3, §4

Serratia marcescens = test: Log kill test of disinfectant formulae (6 hours)
Excerpt: as §1
The method for evaluating the effectiveness of a disinfectant for contact lenses generally requires measuring the ability of the agent to reduce the numbers of viable infective organisms during a period of time consistent with the normal period of storage of contact lenses between wearing times. This reduction of numbers of organisms is typically reported in terms of the change in the common logarithm (base 10 logarithm) of the microbial population as a result of exposure to the antimicrobial or disinfecting agent. For example, if the agent has effected a reduction in the concentration of a particular organisms in a challenge solution from 10^6 colony forming units (cfu) per milliliter (ml) to 10^2 cfu/ml within six hours of exposure then the change, or “log reduction”, of the organism as a result of exposure to the agent would be 4.0 (logs). In other words, the number of viable organisms have been reduced to one ten-thousandth of the original level. […]

L929 cell = test: Cytotoxicity assay: high water-content soft contact lenses cycled five days in test solution, then L929 cell cytotoxicity model
Procedure: The present inventors reported earlier on the anti-cytotoxic properties of certain natural products. Experiments were under taken to confirm the anti-cytotoxic effects of Allantoin in particular. […] Besides the usual microbial tests, the material was also used in a cytotoxicity assay, which consisted of cycling high water-content soft contact lenses for five days in each test solution. Then the solution saturated lenses were tested in a L929 cell cytotoxicity model. Cytotoxicity was rated from 0 to 5 with 2 or greater indicating cytotoxicity.

Staphylococcus aureus = test: Log kill test of preservative/disinfectant formulae (challenge inoculum, plating over time)
Excerpt: as §1, §2, §3, §4

[1] = tested on: S. aureus, Ps. aeruginosa, E. coli, C. albicans, A. niger; test: Preservative/disinfectant effectiveness against the panel of test organisms (USP Category 1A Preservative Effectiveness Test); details: for Effective Concentration (ppm) meeting the USP Category 1A Preservative Effectiveness Test requirements: summary of formulae that meet the requirements
Excerpt: as §1, §3, §4
A recognized standard for evaluating the effectiveness of a preservation agent in contain in the USP. For the reader's convenience the formulae, which meet the USP Category 1A Preservative Effectiveness Test requirements, are summarized in Table 10.

[2] = Cytotoxicity test, USP 24 <87> Biological Reactivity Tests, In Vitro, USP Elution
Procedure: Cytotoxicity studies were also performed to determine the potential of these natural compounds, extracts and derivatives for irritation and discomfort when used as disinfecting or preservative agents. The cytotoxicity test analysis was performed in accordance with USP 24 <87> Biological Reactivity Tests, In Vitro, and USP Elution. Two ml of each sample were diluted with 10 ml of 1× MEM. The biological reactivity were described and rated as 0 (no reactivity), 1 (slight reactivity), 2 (mild reactivity), 3 (moderate reactivity), 4 (severe reactivity).

NC(=O)NC1NC(=O)NC1=O (centres unmarked) [Allantoin]
Effectiveness against Candida albicans, in words (Candida albicans): quite effective
Effectiveness against Aspergillus niger, in words (Aspergillus niger): quite effective
Effectiveness against Serratia marcescens, in words (Serratia marcescens): effective to augment the killing
Cytotoxicity in L929 cell model, in words (L929 cell; lenses cycled five days in test solution): mitigate the cytotoxic characteristics of PHMB

COc1ccc2cc3[n+](cc2c1OC)CCc1cc2c(cc1-3)OCO2 [Berberine]
Effectiveness against Staphylococcus aureus, in words (Staphylococcus aureus): remarkably effective
Effectiveness against Candida albicans, in words (Candida albicans): remarkably effective
Effectiveness against Aspergillus niger, in words (Aspergillus niger): remarkably effective

O=C(/C=C/c1ccc(O)c(O)c1)O[C@@H]1C[C@](O)(C(=O)O)C[C@@H](O)[C@H]1O [Chlorogenic Acid]
Overall disinfectant/preservative effectiveness against the test organisms, in words [1]: quite effective
Effective Concentration (ppm) meeting the USP Category 1A Preservative Effectiveness Test requirements [1]: 1000 ppm

COc1cc(/C=C/C(=O)O)ccc1O [Ferulic Acid]
Overall disinfectant/preservative effectiveness against the test organisms, in words [1]: quite effective
Effective Concentration (ppm) meeting the USP Category 1A Preservative Effectiveness Test requirements [1]: 1000 ppm
Effectiveness against Candida albicans, in words (Candida albicans): better activity

OCCc1ccc(O)c(O)c1 [Hydroxytyrosol, 3,4-dihydroxy-phenylethanol]
Effective Concentration (ppm) meeting the USP Category 1A Preservative Effectiveness Test requirements [1]: 200 ppm
Grade (biological reactivity) ([2]; 33.3 ppm): 0

C/C=C1/[C@H](O[C@@H]2O[C@H](CO)[C@@H](O)[C@H](O)[C@H]2O)OC=C(C(=O)OC)[C@H]1CC(=O)OCCc1ccc(O)c(O)c1 [Oleuropein]
Grade (biological reactivity) ([2]; 8.3 ppm): 0
Grade (biological reactivity) ([2]; 33.3 ppm): 0
Grade (biological reactivity) ([2]; 166.7 ppm): 0

O.O.O=c1c(O)c(-c2ccc(O)c(O)c2)oc2cc(O)cc(O)c12 [Quercetin Dihydrate]
Overall disinfectant/preservative effectiveness against the test organisms, in words ([1]; statement of the text, listed as Quercetin dihydrate, Dihydrate): extremely broad effectiveness
Overall disinfectant/preservative effectiveness against the test organisms, in words ([1]; statement of the text, listed as Quercetin, Dihydrate): very good to excellent control

Oc1ccc(C=Cc2cc(O)cc(O)c2)cc1 [Resveratrol]
Overall disinfectant/preservative effectiveness against the test organisms, in words [1]: wide range of effectiveness

polyhexamethyl biguanide [PHMB, reference compound]
Overall disinfectant/preservative effectiveness against the test organisms, in words [1]: extremely effective against the tested bacteria
Effectiveness against Candida albicans, in words (Candida albicans): only moderately effective
Cytotoxicity in L929 cell model, in words (L929 cell): significant level of cytotoxicity
